Data published in ChEMBL document CHEMBL4257227, “Deubiquitinase inhibitors and methods for use of the same” (2016).
Calls of active or inactive are those of the source. The calls are words filed in the database; no cut-off is given here.

Assays:
[1] = target: Ubiquitin carboxyl-terminal hydrolase 9X (Homo sapiens) (UniProt Q93008); assay: Inhibition of Usp9x in human MM1.S cells assessed as reduction in MCL-1 protein levels at 5 uM incubated for 5 to 240 mins by SDS-PAGE and immunoblotting; format: cell-based
Sequence of Ubiquitin carboxyl-terminal hydrolase 9X (Homo sapiens) (Q93008 whole entry): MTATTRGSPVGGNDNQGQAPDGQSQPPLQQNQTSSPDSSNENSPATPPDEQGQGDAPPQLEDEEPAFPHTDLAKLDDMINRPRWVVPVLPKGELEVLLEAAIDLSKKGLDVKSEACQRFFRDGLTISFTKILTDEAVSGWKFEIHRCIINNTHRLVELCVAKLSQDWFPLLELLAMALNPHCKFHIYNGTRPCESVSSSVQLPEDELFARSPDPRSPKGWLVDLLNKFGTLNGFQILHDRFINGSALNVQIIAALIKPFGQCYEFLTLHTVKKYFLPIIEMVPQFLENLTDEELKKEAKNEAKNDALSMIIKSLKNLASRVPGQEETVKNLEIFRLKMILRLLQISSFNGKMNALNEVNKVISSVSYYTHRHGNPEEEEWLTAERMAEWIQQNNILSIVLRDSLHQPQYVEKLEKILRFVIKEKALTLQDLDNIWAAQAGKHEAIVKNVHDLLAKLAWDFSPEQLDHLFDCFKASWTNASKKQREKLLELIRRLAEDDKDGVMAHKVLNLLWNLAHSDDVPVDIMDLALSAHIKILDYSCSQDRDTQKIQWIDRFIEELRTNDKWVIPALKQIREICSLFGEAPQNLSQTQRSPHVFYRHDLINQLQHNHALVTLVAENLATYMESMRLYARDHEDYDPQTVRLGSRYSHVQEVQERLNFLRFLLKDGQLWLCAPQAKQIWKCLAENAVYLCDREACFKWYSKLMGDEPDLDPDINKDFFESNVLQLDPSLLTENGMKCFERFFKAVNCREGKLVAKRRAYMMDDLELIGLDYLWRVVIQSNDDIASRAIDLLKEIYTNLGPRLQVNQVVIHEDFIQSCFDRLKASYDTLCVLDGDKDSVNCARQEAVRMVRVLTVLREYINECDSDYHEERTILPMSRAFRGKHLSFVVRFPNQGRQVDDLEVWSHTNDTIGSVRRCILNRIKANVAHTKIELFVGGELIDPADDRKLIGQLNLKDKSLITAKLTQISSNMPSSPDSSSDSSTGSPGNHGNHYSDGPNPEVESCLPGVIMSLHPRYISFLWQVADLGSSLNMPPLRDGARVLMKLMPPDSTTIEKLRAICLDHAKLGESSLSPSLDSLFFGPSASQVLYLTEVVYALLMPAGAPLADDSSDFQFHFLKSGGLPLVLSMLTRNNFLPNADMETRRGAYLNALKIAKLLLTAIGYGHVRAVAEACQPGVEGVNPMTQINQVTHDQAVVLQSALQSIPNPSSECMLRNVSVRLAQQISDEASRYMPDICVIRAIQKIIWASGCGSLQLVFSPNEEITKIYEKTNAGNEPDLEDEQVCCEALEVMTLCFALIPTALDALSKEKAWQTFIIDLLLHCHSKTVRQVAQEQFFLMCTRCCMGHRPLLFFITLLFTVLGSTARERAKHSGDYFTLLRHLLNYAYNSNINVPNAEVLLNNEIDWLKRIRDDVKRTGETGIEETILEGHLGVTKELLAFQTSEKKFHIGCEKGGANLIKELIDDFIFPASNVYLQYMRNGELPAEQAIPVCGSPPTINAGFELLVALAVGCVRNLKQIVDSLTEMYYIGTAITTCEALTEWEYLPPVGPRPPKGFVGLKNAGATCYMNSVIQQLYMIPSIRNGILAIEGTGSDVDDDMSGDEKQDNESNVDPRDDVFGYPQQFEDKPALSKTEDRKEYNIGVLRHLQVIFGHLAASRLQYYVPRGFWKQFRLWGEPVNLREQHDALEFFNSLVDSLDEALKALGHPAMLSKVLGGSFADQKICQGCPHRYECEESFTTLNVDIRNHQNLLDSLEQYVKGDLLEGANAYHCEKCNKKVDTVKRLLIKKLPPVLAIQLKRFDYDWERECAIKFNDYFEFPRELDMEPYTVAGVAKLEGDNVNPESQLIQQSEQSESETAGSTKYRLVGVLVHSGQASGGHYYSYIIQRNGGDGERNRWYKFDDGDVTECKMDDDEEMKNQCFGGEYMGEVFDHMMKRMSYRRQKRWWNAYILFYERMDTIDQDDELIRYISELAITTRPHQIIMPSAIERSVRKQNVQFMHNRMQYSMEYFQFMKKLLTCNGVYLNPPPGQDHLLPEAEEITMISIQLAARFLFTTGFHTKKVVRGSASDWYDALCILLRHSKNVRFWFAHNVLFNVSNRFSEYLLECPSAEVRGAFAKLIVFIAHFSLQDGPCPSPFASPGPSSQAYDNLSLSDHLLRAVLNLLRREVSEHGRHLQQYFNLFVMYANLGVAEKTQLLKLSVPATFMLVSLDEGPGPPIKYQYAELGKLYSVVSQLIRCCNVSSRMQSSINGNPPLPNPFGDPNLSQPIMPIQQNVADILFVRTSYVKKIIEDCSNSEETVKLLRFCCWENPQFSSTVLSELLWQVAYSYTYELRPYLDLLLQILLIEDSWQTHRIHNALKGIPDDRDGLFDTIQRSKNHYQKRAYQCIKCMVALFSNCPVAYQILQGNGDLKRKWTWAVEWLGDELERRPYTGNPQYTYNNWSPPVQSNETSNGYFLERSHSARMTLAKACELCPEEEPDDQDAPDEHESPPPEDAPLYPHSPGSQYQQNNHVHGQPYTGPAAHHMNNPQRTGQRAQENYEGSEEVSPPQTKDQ

[2] = target: Ubiquitin carboxyl-terminal hydrolase 9X (Homo sapiens) (UniProt Q93008); assay: Inhibition of Usp9x in human MM1.S cells assessed as reduction in caspase activity by measuring cleaved PARP protein levels at 5 uM incubated for 5 to 240 mins by SDS-PAGE and immunoblotting; format: cell-based
[3] = target: Ubiquitin carboxyl-terminal hydrolase 9X (Homo sapiens) (UniProt Q93008); assay: Inhibition of Usp9x in primary tumor cells from patient with plasma cell leukemia assessed as reduction in MCL-1 protein levels at 5 uM incubated for 30 to 240 mins by SDS-PAGE and immunoblotting; format: cell-based
[4] = AUClast in Balb/c mouse at 10 mg/kg, iv by LC-MS analysis; format: ADME, organism-based; parameters: dose 10 mg/kg, route intravenous, time 0 - last; conditions: in vivo
[5] = AUClast in Balb/c mouse at 30 mg/kg, po by LC-MS analysis; format: ADME, organism-based; parameters: dose 30 mg/kg, route oral, time 0 - last; conditions: in vivo
[6] = system: Mus musculus; assay: Toxicity in human MM1S cells xenografted NOD/SCID/gamma-2 knockout mouse assessed effect on body weight at 2.5 to 10 mg/kg, ip once per day for 14 days; format: functional, organism-based
[7] = system: MM1.S; assay: Antitumor activity against human MM1S cells xenografted in NOD/SCID/gamma-2 knockout mouse assessed as inhibition of tumor growth at 2.5 to 10 mg/kg, ip once per day for 14 days; format: functional, organism-based
[8] = system: MM1.S; assay: Antitumor activity against human MM1S cells xenografted in NOD/SCID/gamma-2 knockout mouse assessed as inhibition of tumor growth at 5 to 20 mg/kg, ip once per day for 14 days; format: functional, organism-based
[9] = system: MM1.S; assay: Antitumor activity against human MM1S cells xenografted in NOD/SCID/gamma-2 knockout mouse assessed as inhibition of tumor volume at 5 to 20 mg/kg, ip once per day for 11 days; format: functional, organism-based
[10] = system: Mus musculus; assay: Inhibition of Usp9x in tumor of human MM1S cells xenografted in NOD/SCID/gamma-2 knockout mouse at 15 mg/kg, ip once per day for 14 days; format: organism-based; conditions: in vivo, 336 h
[11] = system: Mus musculus; assay: Inhibition of Usp9x in human MM1S cells xenografted in NOD/SCID/gamma-2 knockout mouse assessed as reduction in Mcl-1 protein levels at 15 mg/kg, ip once per day for 14 days; format: functional, organism-based
[12] = system: A-375; assay: Antitumor activity against human A375 cells xenografted in NOD/SCID/gamma-2 knockout mouse assessed as inhibition of tumor growth at 15 mg/kg, ip once per day for 8 days; format: functional, organism-based
[13] = system: Mus musculus; assay: Toxicity in human A375 cells xenografted NOD/SCID/gamma-2 knockout mouse assessed effect on body weight at 7.5 mg/kg, ip once per day for 8 days; format: functional, organism-based
[14] = system: MM1.S; assay: Induction of apoptosis in human MM1S cells at 0.3125 to 5 uM incubated for 24 hrs by annexin V staining based flow cytometry; format: functional, cell-based
[15] = system: Murine norovirus; assay: Antiviral activity against Murine norovirus infected in mouse RAW264.7 cells assessed as reduction in viral plaque forming units; format: functional, organism-based
[16] = system: Murine norovirus; assay: Antiviral activity against Murine norovirus infected in Balb/c bone marrow derived macrophages assessed as reduction in viral plaque forming units; format: functional, organism-based
[17] = system: Tulane virus; assay: Antiviral activity against Tulane virus infected in […] LLC-MK cells assessed as reduction in viral plaque forming units; format: functional, organism-based
[18] = target: T1, Ubiquitin carboxyl-terminal hydrolase 5 (Homo sapiens) (UniProt P45974); assay: Inhibition of USP5 in Vemurafenib sensitive human A375 cells assessed as reduction in ERK phosphorylation
T1 sequence (whole entry): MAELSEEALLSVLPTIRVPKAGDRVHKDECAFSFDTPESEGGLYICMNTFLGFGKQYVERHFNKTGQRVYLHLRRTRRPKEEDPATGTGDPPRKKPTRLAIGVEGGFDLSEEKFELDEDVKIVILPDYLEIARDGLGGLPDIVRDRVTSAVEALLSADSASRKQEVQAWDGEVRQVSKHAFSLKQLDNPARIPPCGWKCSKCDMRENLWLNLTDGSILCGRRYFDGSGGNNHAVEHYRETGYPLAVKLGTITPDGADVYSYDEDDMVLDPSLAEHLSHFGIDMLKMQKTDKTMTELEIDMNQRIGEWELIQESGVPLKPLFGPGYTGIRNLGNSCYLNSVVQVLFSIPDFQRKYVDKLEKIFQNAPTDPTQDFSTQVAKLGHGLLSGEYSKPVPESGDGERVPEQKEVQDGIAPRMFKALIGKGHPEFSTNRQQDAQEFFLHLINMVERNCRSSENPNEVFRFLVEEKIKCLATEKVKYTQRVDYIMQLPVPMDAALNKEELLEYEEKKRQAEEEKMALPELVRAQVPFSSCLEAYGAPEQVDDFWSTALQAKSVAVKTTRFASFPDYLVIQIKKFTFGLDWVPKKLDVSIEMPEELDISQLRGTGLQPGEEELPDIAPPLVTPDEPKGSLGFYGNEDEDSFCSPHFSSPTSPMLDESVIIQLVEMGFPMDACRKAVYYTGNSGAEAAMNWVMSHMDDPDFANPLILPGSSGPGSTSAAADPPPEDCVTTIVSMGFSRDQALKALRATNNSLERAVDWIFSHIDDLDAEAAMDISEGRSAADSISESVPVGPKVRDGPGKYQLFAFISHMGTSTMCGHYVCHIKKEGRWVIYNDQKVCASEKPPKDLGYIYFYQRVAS

[19] = target: T1, Ubiquitin carboxyl-terminal hydrolase 5 (Homo sapiens); assay: Inhibition of USP5 in Vemurafenib resistant human A375 cells assessed as reduction in ERK phosphorylation
[20] = target: Ubiquitin carboxyl-terminal hydrolase 9X (Homo sapiens) (UniProt Q93008); assay: Inhibition of USP9x in Vemurafenib sensitive human A375 cells
[21] = target: Ubiquitin carboxyl-terminal hydrolase 9X (Homo sapiens) (UniProt Q93008); assay: Inhibition of USP9x in Vemurafenib resistant human A375 cells
[22] = system: A-375; assay: Induction of p53 protein expression in Vemurafenib resistant human A375 cells; format: functional, cell-based
[23] = target: Ubiquitin carboxyl-terminal hydrolase 9X (Homo sapiens) (UniProt Q93008); assay: Inhibition of USP9x in Vemurafenib sensitive human A375 cells assessed as STAT3 phosphorylation
[24] = target: Ubiquitin carboxyl-terminal hydrolase 9X (Homo sapiens) (UniProt Q93008); assay: Inhibition of USP9x in Vemurafenib resistant human A375 cells assessed as STAT3 phosphorylation
[25] = system: A375/R; assay: Induction of apoptosis in human A375R cells assessed as induction of PARP cleavage; format: functional, cell-based
[26] = system: A375/R; assay: Induction of apoptosis in human A375R cells assessed as induction of caspase-3 activation; format: functional, cell-based
[27] = system: A-375; assay: Antitumor activity against human A375 cells xenografted in NOD/SCID/gamma-2 knockout mouse assessed as inhibition of tumor growth at 7.5 to 15 mg/kg, ip once per day for 8 days followed by drug cessation and measured 10 days after drug cessation; format: functional, organism-based
[28] = system: Mus musculus; assay: Toxicity in human A375 cells xenografted NOD/SCID/gamma-2 knockout mouse assessed as effect on behaviour at 7.5 to 15 mg/kg, ip once per day for 8 days; format: functional, organism-based
[29] = system: Mus musculus; assay: Toxicity in human A375 cells xenografted NOD/SCID/gamma-2 knockout mouse assessed as effect on mobility at 7.5 to 15 mg/kg, ip once per day for 8 days; format: functional, organism-based
[30] = system: Mus musculus; assay: Toxicity in human A375 cells xenografted NOD/SCID/gamma-2 knockout mouse assessed as induction of body weight loss at 7.5 to 15 mg/kg, ip once per day for 8 days; format: functional, organism-based

In the case of `CCCC(NC(=O)/C(C#N)=C/c1nc(Cl)ccc1Cl)c1ccc(OCCN2CCOCC2)cc1` (stereo not given), the inhibition [1] is reported as “Active”, the inhibition [2] is reported as “Active” and the inhibition [3] is reported as “Active”. For the same molecule, the AUC(0-t) [4] was 3570 to 3730 ng·h/mL, the AUC(0-t) [5] was 291 to 349 ng·h/mL and the Activity [6] was “Not toxic”. The TGI [7] was “Active”, the TGI [8] was “Active” and the Activity [9] was “Active”. The “inhibition (INH)” value [10] was “Active”, the inhibition [11] was “Active” and the TGI [12] was “Active”. The Activity [13] was “Not toxic”, the Activity [14] was “Active” and the Activity [15] was “Active”. For the same molecule, the Activity [16] was “Active”, the Activity [17] was “Active” and the inhibition [18] was “Active”. For the same molecule, the inhibition [19] was “Active”, the inhibition [20] was “Active” and the inhibition [21] was “Active”. The Activity [22] was “inactive”, the inhibition [23] was “Active” and the inhibition [24] was “Active”. The Activity [25] was “Active”, the Activity [26] was “Active” and the TGI [27] was “inactive”. For the same molecule, the Activity [28] was “Not toxic”, the Activity [29] was “Not toxic” and the Activity [30] was “Not toxic”.
